One data set deals with RD-ES. Description: XTT cell viability assay, RD-ES. The class given is cell-based. The following applies: 72 h, read-out: Viability IC50. As to the method: (§1) Cell viability assays. For viability assays, four EWS:Fli1 fusion tumor cell lines (RD-ES, SK-ES-1, A673, and TC-71), one human embryonic kidney cell line (293.T), one ES tumor cell line with ERG fusion (CHLA-25), one fetal kidney cell line (HEK293.T), one hepatoblastoma cell line (HepG2), one chronic myeloid leukemia (MEG-01), and one acute monocytic leukemia (THP-1) cell line were plated at 5000 cells/well in 100 μL growth media in 96-well plates. After overnight incubation, 50 μL of growth media containing mithramycin A (MithA) (Cayman Chemical, Ann Arbor, Mi. Item Number 11434) or boronic acid-conjugated nano-MithA (MANP) (0.12 nM to 500 nM, final) or dimethyl sulfoxide (DMSO, 0.01% v/v) vehicle was added to the wells, and cell viability assays were performed 72 hours later. The cells were incubated with the activated-XTT solution (mixture of 2% final concentration of activation reagent with the XTT reagent) from ATCC (Catalog Number 30-1011K, XTT Cell Proliferation Assay Kit) for 3 hours prior to recording absorbance. The cell viability was determined by measuring the absorbance wavelength at 475 nm and reference wavelength at 650 nm on an Infinite M200 plate reader (Tecan Group, Ltd. Mannedorf, Switzerland). […]
(In general: Formazan colour is commonly taken as a measure of viable cells.)

The test system of another data set is TC-71. In words: XTT cell viability assay, TC-71. The following applies: TC-71, 72 h, read-out: Viability IC50. The class given is cell-based. How it is done:
as §1

A further data set relates to Rad51. Description: Western blotting, Rad51 protein expression. The class given is cell-based. The following applies: 10 nM, 24 hours. As to the method: Western Blotting. Expression Western blotting was performed to assess the expression of NR0B1 (EWS:Fli1 target gene) and Rad 51 (DNA homologous recombination repair HRR) at protein level as provisory described in Lin et al 2021. Briefly, cells were grown to ˜70% confluence and exposed to 10 nM of MithA/MANP (final concentration) or DMSO, (0.01% v/v) vehicle and blank polymer for 24 hours. Lysates were collected in cold RIPA lysis buffer supplemented with 1×HALT protease/phosphatase inhibitor cocktail (Thermo Scientific) and clarified by centrifugation. Protein concentration of the supernatant was determined by BCA assay (Thermo Scientific), and then diluted in 4× loading buffer (Licor Inc., Lincoln, Nebr.) containing 1× NuPAGE reducing agent (Life Technologies). Prior to electrophoresis, samples were denatured by incubating at 70° C. for 10 minutes. Samples were then resolved (25 μg/lane) on 4-20% gradient SDS-PAGE gels and transferred to low-fluorescence PVDF membranes (Bio-Rad Inc., Hercules Calif.). Transfer efficiency and equivalence of total protein load was assessed using Revert 700 Total Protein Stain kits (Licor Inc). Membranes were then washed, blocked in Odyssey Blocking Buffer (PBS) (Licor Inc), and incubated with primary antibodies (Table S4.3 above) overnight at 4° C. diluted in blocking buffer.
In general terms: A western blot detects proteins with antibodies after separation by electrophoresis.

The test system of a further data set is Female C57BL/6J mice. In words: In vivo toxicity of MithA and MANP: body weight, death, morbidity. How it is done:
In vivo toxicity of MithA and MANP. Cohorts of n=6-7 C57BL/6J females, 8-10 wko were randomized to receive either intravenous or intraperitoneal administration of saline control vehicle, blank polymer, MithA, or MANP as described in TABLES 2A and 2B. Body weight loss exceeding 20%, death, morbidity, changes in behavior, and any other sign of local or systemic toxicity were recorded.

Setting [1] is: single i.v. 4 mg/kg, within 48 hours.

A word on the IC50: it is the concentration that gives 50% inhibition. Consider `CO[C@H](C(=O)[C@@H](O)[C@@H](C)O)[C@@H]1Cc2cc3cc(O[C@H]4C[C@@H](O[C@H]5C[C@@H](O)[C@H](O)[C@@H](C)O5)[C@H](O)[C@@H](C)O4)c(C)c(O)c3c(O)c2C(=O)[C@H]1O[C@H]1C[C@@H](O[C@H]2C[C@@H](O[C@H]3C[C@](C)(O)[C@H](O)[C@@H](C)O3)[C@@H](O)[C@@H](C)O2)[C@H](O)[C@@H](C)O1` [MithA, (2S,3S)-2-[(2S,4R,5R,6R)-4-[(2S,4R,5S,6R)-4-[(2S,4S,5R,6R)-4,5-dihydroxy-4,6-dimethyloxan-2-yl]oxy-5-hydroxy-6-methyloxan-2-yl]oxy-5-hydroxy-6-methyloxan-2-yl]oxy-3-[(1 S,3S,4R)-3,4-dihydroxy-1-methoxy-2-oxopentyl]-6-[(2S,4R,5R,6R)-4-[(2S,4R,5S,6R)-4,5-dihydroxy-6-methyloxan-2-yl]oxy-5-hydroxy-6-methyloxan-2-yl]oxy-8,9-dihydroxy-7-methyl-3,4-dihydro-2H-anthracen-1-one], for which the IC50 with RD-ES is 6.2 nM; in the data set with TC-71, 9.3 nM. Further, in the data set on Rad51, the Rad51 protein expression entry is given as “Down-regulated”. Moreover, in the data set on Female C57BL/6J mice (5 consecutive days i.p. 1 mg/kg), the “toxicity by serum chemistry or hematology studies” value is on record as “no significant toxicity”. Moreover, the death result in the data set with Female C57BL/6J mice (5 consecutive days i.p. 4 mg/kg) is recorded as “One mouse died”. The body weight result in the data set with Female C57BL/6J mice (5 consecutive days i.p. 4 mg/kg (p=0.0016)) was “progressive and significant body weight loss”; in the data set with Female C57BL/6J mice (single i.p. injection, 1 mg/kg and 4 mg/kg, vs saline vehicle), “no significant weight loss”; in the data set with Female C57BL/6J mice (single i.v. 4 mg/kg, in comparison to equivalent dose of MANP (p=0.048)) it was “significant decrease”. Further, the morbidity entry in the data set with Female C57BL/6J mice (5 consecutive days i.p. 4 mg/kg, day of harvest (day 6)) was “one mouse found to be moribund”. Besides, in the data set with Female C57BL/6J mice (five i.v. injections on alternating days, 1 mg/kg or 2 mg/kg), the “outward signs of morbidity or toxicity” value is reported as “no obvious outward signs of morbidity or toxicity”. The “toxicity by serum chemistry or hematology assays” value with Female C57BL/6J mice (single i.p. injection, 1 or 2 mg/kg) is “did not cause any toxicity”. Besides, the death rate in the data set on Female C57BL/6J mice (setting [1]) is recorded as 75%. Besides, the mice that died in the data set with Female C57BL/6J mice (setting [1]) is 6/8.

(Values after patent US20230233695A1, “MITHRAMYCIN A NANOPARTICLES FOR CANCER TREATMENT” (priority 2021, published 2023).)
